Results published in ChEMBL document CHEMBL4725419, “Complete Regression of Carcinoma via Combined C-RAF and EGFR Targeted Therapy” (2020).

Legend:
PANC-1 = assay: Antiproliferative activity against EGFR/C-RAF knockdown human PANC-1 cells harboring K-RAS G12D/TP53 P72R/K129R mutant xenografted in mouse tumor model assessed as inhibition of cell proliferation by MTT assay in presence of erlotinib; type: functional
[1] = Antiproliferative activity against EGFR/C-RAF knockdown human PDAC013T cells harboring K-RAS G12D/TP53 I254T mutant xenografted in mouse tumor model assessed as inhibition of cell proliferation by MTT assay in presence of erlotinib; type: functional
[2] = Antiproliferative activity against EGFR/C-RAF knockdown human Panc198 cells harboring K-RAS G12D/TP53 D208V mutant xenografted in mouse tumor model assessed as inhibition of cell proliferation by MTT assay in presence of erlotinib; type: functional
[3] = Antiproliferative activity against EGFR/C-RAF knockdown human Panc4 cells harboring K-RAS G12D/TP53 P72R/R28W mutant xenografted in mouse tumor model assessed as inhibition of cell proliferation by MTT assay in presence of erlotinib; type: functional, Panc-4
[4] = Antiproliferative activity against EGFR/C-RAF knockdown human PDAC003T cells harboring K-RAS G12D/TP53 Q136P mutant xenografted in mouse tumor model assessed as inhibition of cell proliferation by MTT assay in presence of erlotinib; type: functional
[5] = Antiproliferative activity against EGFR/C-RAF knockdown human H-PDAC-M-X3 cells harboring K-RAS G12D/TP53 H179Y mutant xenografted in mouse tumor model assessed as inhibition of cell proliferation by MTT assay in presence of erlotinib; type: functional

SMILES: C#Cc1cccc(Nc2ncnc3cc(OCCOC)c(OCCOC)cc23)c1 [ERLOTINIB]
- INH (PANC-1): 6.1 µM
- INH [1]: 2.05 µM
- INH [2]: 32.8 µM
- INH [3]: 2.82 µM
- INH [4]: 11.7 µM
- INH [5]: 24.5 µM
